US20260138969A1 (Korea Research Institute of Chemical Technology, priority 2023, published 2026)
pIC50: −log10 of the molar value.

Molecular target: T1, recombinant human ASK1 protein (Homo sapiens, UniProt Q99683)
T1 sequence (Q99683 1-1374): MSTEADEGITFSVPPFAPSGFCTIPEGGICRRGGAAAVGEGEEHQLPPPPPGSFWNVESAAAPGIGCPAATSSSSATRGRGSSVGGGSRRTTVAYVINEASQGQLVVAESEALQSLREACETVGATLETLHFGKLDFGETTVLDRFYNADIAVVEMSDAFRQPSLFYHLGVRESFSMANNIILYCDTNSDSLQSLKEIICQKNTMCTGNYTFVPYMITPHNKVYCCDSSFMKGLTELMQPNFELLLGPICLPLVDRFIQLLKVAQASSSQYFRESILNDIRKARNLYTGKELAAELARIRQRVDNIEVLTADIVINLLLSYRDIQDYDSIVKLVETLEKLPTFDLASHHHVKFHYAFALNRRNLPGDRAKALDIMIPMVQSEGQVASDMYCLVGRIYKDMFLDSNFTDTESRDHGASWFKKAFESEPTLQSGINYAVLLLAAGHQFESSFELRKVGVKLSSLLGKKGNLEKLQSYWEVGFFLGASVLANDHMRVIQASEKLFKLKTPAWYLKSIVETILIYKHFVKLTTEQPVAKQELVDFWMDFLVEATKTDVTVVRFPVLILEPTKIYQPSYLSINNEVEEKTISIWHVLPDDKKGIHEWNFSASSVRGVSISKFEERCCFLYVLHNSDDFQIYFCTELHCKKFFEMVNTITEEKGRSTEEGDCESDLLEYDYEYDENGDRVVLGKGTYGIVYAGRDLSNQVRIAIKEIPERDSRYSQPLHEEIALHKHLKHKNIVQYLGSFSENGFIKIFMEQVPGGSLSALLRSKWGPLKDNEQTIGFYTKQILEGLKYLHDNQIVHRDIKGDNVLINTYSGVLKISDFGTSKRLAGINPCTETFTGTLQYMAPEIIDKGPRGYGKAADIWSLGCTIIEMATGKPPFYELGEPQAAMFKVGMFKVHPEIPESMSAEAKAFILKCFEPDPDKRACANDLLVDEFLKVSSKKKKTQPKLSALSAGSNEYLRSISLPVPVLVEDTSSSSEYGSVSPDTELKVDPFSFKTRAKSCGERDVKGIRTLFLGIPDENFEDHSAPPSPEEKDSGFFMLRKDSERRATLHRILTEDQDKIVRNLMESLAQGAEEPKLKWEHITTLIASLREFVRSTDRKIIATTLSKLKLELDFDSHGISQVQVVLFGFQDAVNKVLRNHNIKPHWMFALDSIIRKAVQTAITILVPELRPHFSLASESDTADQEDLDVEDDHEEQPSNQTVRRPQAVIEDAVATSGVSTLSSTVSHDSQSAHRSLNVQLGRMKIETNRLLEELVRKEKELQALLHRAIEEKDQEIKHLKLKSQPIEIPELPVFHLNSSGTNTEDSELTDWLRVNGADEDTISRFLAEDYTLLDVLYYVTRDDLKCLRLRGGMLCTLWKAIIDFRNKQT
Assay: Evaluation of ASK1 inhibition activity ([gamma-33P]-ATP, scintillation counting)
Type: biochemical
Settings: for remaining activity at 0.5 µM: activity of group without compound set at 100%, read-out: Remaining kinase activity (%) at 0.5 uM
Experimental: The recombinant human ASK1 protein was initiated by adding a mixture of Mg/ATP to the reaction solution (8 mM MOPS PH 7.0, 0.2 mM EDTA, 0.33 mg/mL myelin basic protein, 10 mM Mg Acetate and [gamma-33P]-ATP), and the reaction was terminated by adding 0.5% phosphoric acid after 40 min at room temperature.

| pIC50 | remaining activity at 0.5 µM [%] | Compound |
| --- | --- | --- |
| 6.63 | 14 | Cc1cc(F)c(C(=O)Nc2cccc(-n3nnc4ccccc43)n2)cc1-n1cnc(C2CC2)c1 [Example 1, N-(6-(1H-benzo[d][1,2,3]triazole-1-yl)pyridine-2-yl)-5-(4-cyclopropyl-1H-imidazole-1-yl)-2-fluoro-4-methylbenzamide] |
| 6.70 | – | Cc1cc(F)c(C(=O)Nc2cccc(-n3nnc4c3CCCCCC4)n2)cc1-n1cnc(C2CC2)c1 [Example 5, 5-(4-cyclopropyl-1H-imidazole-1-yl)-2-fluoro-N-(6-(4,5,6,7,8,9-hexahydro-1H-cycloocta[d][1,2,3]triazole-1-yl)pyridine-2-yl)-4-methylbenzamide] |
| – | 0 | COc1ccc(-n2cnc(C3CC3)c2)cc1C(=O)Nc1cccc(-n2nnc3c2CCC3)n1 [Example 6, 5-(4-cyclopropyl-1H-imidazol-1-yl)-N-(6-(5,6-dihydrocyclopenta[d][1,2,3]triazol-1 (4H)-yl)pyridin-2-yl)-2-methoxybenzamide] |
| – | 2 | COc1ccc(-n2cnc(C3CC3)c2)cc1C(=O)Nc1cccc(-n2nnc3c2CCCC3)n1 [Example 7, 5-(4-cyclopropyl-1H-imidazol-1-yl)-2-methoxy-N-(6-(4,5,6,7-tetrahydro-1H-benzo[d][1,2,3]triazol-1-yl)pyridin-2-yl)benzamide] |
| – | 0 | COc1cc(C)c(-n2cnc(C3CC3)c2)cc1C(=O)Nc1cccc(-n2nnc3c2CCC3)n1 [Example 8, 5-(4-cyclopropyl-1H-imidazol-1-yl)-N-(6-(5,6-dihydrocyclopenta[d][1,2,3]triazol-1 (4H)-yl)pyridin-2-yl)-2-methoxy-4-methylbenzamide] |
| – | 0 | COc1cc(C)c(-n2cnc(C3CC3)c2)cc1C(=O)Nc1cccc(-n2nnc3c2CCCC3)n1 [Example 9, 5-(4-cyclopropyl-1H-imidazol-1-yl)-2-methoxy-4-methyl-N-(6-(4,5,6,7-tetrahydro-1H-benzo[d][1,2,3]triazol-1-yl)pyridin-2-yl)benzamide] |
| – | 14 | CCOc1cc(C)c(-n2cnc(C3CC3)c2)cc1C(=O)Nc1cccc(-n2nnc3c2CCC3)n1 [Example 10, 5-(4-cyclopropyl-1H-imidazol-1-yl)-N-(6-(5,6-dihydrocyclopenta[d][1,2,3]triazol-1 (4H)-yl)pyridin-2-yl)-2-ethoxy-4-methylbenzamide] |
| – | 29 | CCOc1cc(C)c(-n2cnc(C3CC3)c2)cc1C(=O)Nc1cccc(-n2nnc3c2CCCC3)n1 [Example 11, 5-(4-cyclopropyl-1H-imidazol-1-yl)-2-ethoxy-4-methyl-N-(6-(4,5,6,7-tetrahydro-1H-benzo[d][1,2,3]triazol-1-yl)pyridin-2-yl)benzamide] |
| – | 0 | Cc1cc(OC(C)C)c(C(=O)Nc2cccc(-n3nnc4c3CCC4)n2)cc1-n1cnc(C2CC2)c1 [Example 12, 5-(4-cyclopropyl-1H-imidazol-1-yl)-N-(6-(5,6-dihydrocyclopenta[d][1,2,3]triazol-1 (4H)-yl)pyridin-2-yl)-2-isopropoxy-4-methylbenzamide] |
| – | 9 | Cc1cc(OC(C)C)c(C(=O)Nc2cccc(-n3nnc4c3CCCC4)n2)cc1-n1cnc(C2CC2)c1 [Example 13, 5-(4-cyclopropyl-1H-imidazol-1-yl)-2-isopropoxy-4-methyl-N-(6-(4,5,6,7-tetrahydro-1H-benzo[d][1,2,3]triazol-1-yl)pyridin-2-yl)benzamide] |
| – | 1 | Cc1cc(OC(F)F)c(C(=O)Nc2cccc(-n3nnc4c3CCC4)n2)cc1-n1cnc(C2CC2)c1 [Example 14, 5-(4-cyclopropyl-1H-imidazol-1-yl)-2-(difluoromethoxy)-N-(6-(5,6-dihydrocyclopenta[d][1,2,3]triazol-1 (4H)-yl)pyridin-2-yl)-4-methylbenzamide] |
| – | 8 | Cc1cc(OC(F)F)c(C(=O)Nc2cccc(-n3nnc4c3CCCC4)n2)cc1-n1cnc(C2CC2)c1 [Example 15, 5-(4-cyclopropyl-1H-imidazol-1-yl)-2-(difluoromethoxy)-4-methyl-N-(6-(4,5,6,7-tetrahydro-1H-benzo[d][1,2,3]triazol-1-yl)pyridin-2-yl)benzamide] |
| – | 11 | CCOc1ccc(-n2cnc(C3CC3)c2)cc1C(=O)Nc1cccc(-n2nnc3c2CCC3)n1 [Example 16, 5-(4-cyclopropyl-1H-imidazol-1-yl)-N-(6-(5,6-dihydrocyclopenta[d][1,2,3]triazol-1 (4H)-yl)pyridin-2-yl)-2-ethoxybenzamide] |
| – | 2 | CCOc1ccc(-n2cnc(C3CC3)c2)cc1C(=O)Nc1cccc(-n2nnc3c2CCCC3)n1 [Example 17, 5-(4-cyclopropyl-1H-imidazol-1-yl)-2-ethoxy-N-(6-(4,5,6,7-tetrahydro-1H-benzo[d][1,2,3]triazol-1-yl)pyridin-2-yl)benzamide] |
| – | 11 | CC(C)Oc1ccc(-n2cnc(C3CC3)c2)cc1C(=O)Nc1cccc(-n2nnc3c2CCC3)n1 [Example 18, 5-(4-cyclopropyl-1H-imidazol-1-yl)-N-(6-(5,6-dihydrocyclopenta[d][1,2,3]triazol-1 (4H)-yl)pyridin-2-yl)-2-isopropoxybenzamide] |
| – | 9 | CC(C)Oc1ccc(-n2cnc(C3CC3)c2)cc1C(=O)Nc1cccc(-n2nnc3c2CCCC3)n1 [Example 19, 5-(4-cyclopropyl-1H-imidazol-1-yl)-2-isopropoxy-N-(6-(4,5,6,7-tetrahydro-1H-benzo[d][1,2,3]triazol-1-yl)pyridin-2-yl)benzamide] |
| – | 3 | O=C(Nc1cccc(-n2nnc3c2CCC3)n1)c1cc(-n2cnc(C3CC3)c2)ccc1OCC(F)(F)F [Example 20, 5-(4-cyclopropyl-1H-imidazol-1-yl)-N-(6-(5,6-dihydrocyclopenta[d][1,2,3]triazol-1 (4H)-yl)pyridin-2-yl)-2-(2,2,2-trifluoroethoxy)benzamide] |
| – | 16 | O=C(Nc1cccc(-n2nnc3c2CCCC3)n1)c1cc(-n2cnc(C3CC3)c2)ccc1OCC(F)(F)F [Example 21, 5-(4-cyclopropyl-1H-imidazol-1-yl)-N-(6-(4,5,6,7-tetrahydro-1H-benzo[d][1,2,3]triazol-1-yl)pyridin-2-yl)-2-(2,2,2-trifluoroethoxy)benzamide] |
| – | 24 | O=C(Nc1cccc(-n2nnc3c2CCC3)n1)c1cc(-n2cnc(C3CC3)c2)ccc1OC1CC1 [Example 22, 2-cyclopropoxy-5-(4-cyclopropyl-1H-imidazol-1-yl)-N-(6-(5,6-dihydrocyclopenta[d][1,2,3]triazol-1 (4H)-yl)pyridin-2-yl)benzamide] |
| – | 38 | O=C(Nc1cccc(-n2nnc3c2CCCC3)n1)c1cc(-n2cnc(C3CC3)c2)ccc1OC1CC1 [Example 23, 2-cyclopropoxy-5-(4-cyclopropyl-1H-imidazol-1-yl)-N-(6-(4,5,6,7-tetrahydro-1H-benzo[d][1,2,3]triazol-1-yl)pyridin-2-yl)benzamide] |
| – | 5 | O=C(Nc1cccc(-n2nnc3c2CCC3)n1)c1cc(-n2cnc(C3CC3)c2)ccc1OC(F)(F)F [Example 24, 5-(4-cyclopropyl-1H-imidazol-1-yl)-N-(6-(5,6-dihydrocyclopenta[d][1,2,3]triazol-1 (4H)-yl)pyridin-2-yl)-2-(trifluoromethoxy)benzamide] |
| – | 14 | O=C(Nc1cccc(-n2nnc3c2CCCC3)n1)c1cc(-n2cnc(C3CC3)c2)ccc1OC(F)(F)F [Example 25, 5-(4-cyclopropyl-1H-imidazol-1-yl)-N-(6-(4,5,6,7-tetrahydro-1H-benzo[d][1,2,3]triazol-1-yl)pyridin-2-yl)-2-(trifluoromethoxy)benzamide] |
